Test results from US11208400B2, “Substituted 6-(1H-pyrazol-1-yl)pyrimidin-4-amine derivatives and uses thereof” (Bayer Aktiengesellschaft, priority 2016, dated 2021).

biological target: T1, human Npt2a (Homo sapiens, UniProt Q06495); assay: Npt2a activity cell based assay, membrane potential dye, CHO T-REx hNpt2a cells; settings: doxycycline-induced, depolarization by sodium phosphate influx, average or median values if tested more than once
T1 construct: expressed in transfected cells
T1 sequence (Q06495 1-639): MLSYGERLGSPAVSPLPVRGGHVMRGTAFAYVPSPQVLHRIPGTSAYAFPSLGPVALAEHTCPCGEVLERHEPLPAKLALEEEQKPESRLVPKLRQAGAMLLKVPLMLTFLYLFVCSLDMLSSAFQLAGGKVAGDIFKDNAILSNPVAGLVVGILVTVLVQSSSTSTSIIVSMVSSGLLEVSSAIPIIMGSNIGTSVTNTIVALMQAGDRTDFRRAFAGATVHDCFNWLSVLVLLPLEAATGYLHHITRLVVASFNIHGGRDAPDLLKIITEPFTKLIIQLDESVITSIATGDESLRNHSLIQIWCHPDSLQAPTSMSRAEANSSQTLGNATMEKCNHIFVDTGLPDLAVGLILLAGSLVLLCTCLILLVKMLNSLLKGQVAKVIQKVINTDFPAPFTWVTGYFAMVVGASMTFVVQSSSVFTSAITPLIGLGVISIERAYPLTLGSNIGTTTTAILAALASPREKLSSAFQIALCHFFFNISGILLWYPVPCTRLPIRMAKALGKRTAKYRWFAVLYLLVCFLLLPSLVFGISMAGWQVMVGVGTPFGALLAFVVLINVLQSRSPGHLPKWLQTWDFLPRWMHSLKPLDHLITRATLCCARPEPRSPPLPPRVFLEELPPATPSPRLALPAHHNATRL
Method: For measuring Npt2a activity in a cell based assay, a stable CHO cell line with inducible Npt2a expression was generated. Therefore, CHO T-Rex cells (life technologies cat. R718-07) were stably transfected with doxycycline-inducible human NPT2a (pcDNA5TO-hNpt2a). The obtained CHO T-REx hNpt2a cells were routinely cultured in Dulbecco's MEM/F12 (4.5 g/l Glucose, Gibco cat. 21331-020; 500 mL) supplemented with 10 ml Glutamax 100×, Sodium pyruvate (7 mL of 100 mM solution), HEPES (10 mL of 1 M solution), Sodium bicarbonate (10 mL of 7.5% solution), 10% Fetal Bovine Serum Tetracycline free (Clontech cat. 631106, 500 ml), Penicillin-Streptomycin (5 mL of 100× Solution), Blasticidin 10 μg/mL and 400 μg/mL Hygromycin.
Activity of Npt2a was detected by following depolarization of cellular membrane potential by influx of sodium phosphate using fluorescent membrane potential dye kit BLUE (Molecular devices cat. R8034). For Npt2a activity measurements, CHO T-Rex hNpt2a cells were seeded into 1536 well microtiter plates (GREINER Bio-One cat. 782092) with 750 cells/well in 7 μL/w of complete medium (2% Tetracycline-free FBS, 2% Poly-D-Lysine) without selective agents+Doxycycline 0.5 μg/mL to induce Npt2a gene expression, and grown for 24 h at 37° C., 5% carbon dioxide.
On the day of experiment a 1×MPdye Loading Solution was freshly prepared by re-suspending 15 mg of Blue MPdye powder in 10 mL of NHE buffer sodium-free (140 mM N-Methyl-D-glucamine, 5.4 mM KCl, 1 mM CaCl2, 11 mM D(±)-Glucose water free, 1.2 mM MgCl2, 10 mM HEPES; pH 7.4 (adjusted with hydrochloric acid); sterile filtered). 5 μl medium was removed from plates by robotic manipulation, then 5 μL/well of sodium-free NHE buffer was added. After incubation for 2 min, this washing step was repeated once. Then, 5 μL/w of buffer was removed from plates and cells were incubated for 5 min at room temperature with 5 μL/w of MPdye Loading Solution (1× in Sodium-free NHE Buffer). Test compounds were added to the cells at final test concentrations between 50 μM and 1 nM (0.6 μL/well, final DMSO 0.6%, prepared in MPDye Loading Solution) and incubated for 5 min at room temperature.
Plates were analyzed with an in house CCD camera device using a λexc 510-545 nm/λem 565-625 nm filter. Fluorescence was detected for 15 sec (background measurement M1). Activity of Npt2a was triggered by addition of 2 μL/well of 30 mM Na+ and 1 mM phosphate (prepared in a mixture of NHE Buffer Na+ free and NHE Buffer 140 mM Na+). Fluorescence was followed for 2-3 min (depolarization measurement M2). Data was normalized to cell number and dye loading efficiency by calculating M2/M1. This quotient was plotted against test compound concentration. Graph Pad Prism or equivalent in house software was used to create sigmoidal dose-response curves (variable slope) and determine IC50 values.

Row | SMILES | IC50 [µM]
1 | Cc1nn(-c2cc(Nc3c(C)c(-c4ccc(F)cc4F)nn3C)ncn2)c(C)c1C(C)(C)O [Example 378, 2-[1-(6-{[3-(2,4-difluorophenyl)-1,4-dimethyl-1H-pyrazol-5-yl]amino}pyrimidin-4-yl)-3,5-dimethyl-1H-pyrazol-4-yl]propan-2-ol] | 2.55
2 | CCCN1Cc2cn(-c3cc(Nc4c(C)c(-c5ccc(F)cc5)nn4CC4CC4)ncn3)nc2C1 [Example 523, N-[1-(cyclopropylmethyl)-3-(4-fluorophenyl)-4-methyl-1H-pyrazol-5-yl]-6-(5-propyl-5,6-dihydropyrrolo[3,4-c]pyrazol-2(4H)-yl)pyrimidin-4-amine] | 0.69
3 | Cc1nn(-c2cc(Nc3c(C)c(-c4ccc(C#N)cc4)nn3CC3CC3)ncn2)c(C)c1C(C)O (racemic) [Example 341, (±)-4-{1-(cyclopropylmethyl)-5-[(6-{4-[1-hydroxyethyl]-3,5-dimethyl-1H-pyrazol-1-yl}pyrimidin-4-yl)amino]-4-methyl-1H-pyrazol-3-yl}benzonitrile] | 0.017
4 | Cc1nn(-c2cc(Nc3c(C)nn(-c4ccc(C#N)cc4)c3C)ncn2)c(C(F)F)c1Cl [Example 200, 4-[4-({6-[4-chloro-5-(difluoromethyl)-3-methyl-1H-pyrazol-1-yl]pyrimidin-4-yl}amino)-3,5-dimethyl-1H-pyrazol-1-yl]benzonitrile] | 0.008
5 | COc1c(-c2ccc(C#N)cc2)nn(C)c1Nc1cc(-n2nc(C)c(C(O)C(F)(F)F)c2C)ncn1 (racemic) [Example 425, (±)-4-{5-[(6-{3,5-dimethyl-4-[2,2,2-trifluoro-1-hydroxyethyl]-1H-pyrazol-1-yl}pyrimidin-4-yl)amino]-4-methoxy-1-methyl-1H-pyrazol-3-yl}benzonitrile] | 0.415
6 | Cc1nn(-c2cc(Nc3c(C4CC4)c(-c4ccc(F)cc4)nn3C)ncn2)c(C)c1Cl [Example 45, 6-(4-chloro-3,5-dimethyl-1H-pyrazol-1-yl)-N-[4-cyclopropyl-3-(4-fluorophenyl)-1-methyl-1H-pyrazol-5-yl]pyrimidin-4-amine] | 0.029
7 | Cc1cc(C)n(-c2cc(Nc3c(C)c(-c4ccc(C(F)(F)F)cc4)nn3CC3CC3)ncn2)n1 [Example 306, N-{1-(cyclopropylmethyl)-4-methyl-3-[4-(trifluoromethyl)phenyl]-1H-pyrazol-5-yl}-6-(3,5-dimethyl-1H-pyrazol-1-yl)pyrimidin-4-amine] | 0.06
8 | CCOC(=O)c1c(C)nn(-c2cc(Nc3c(CC)c(-c4ccc(C#N)cc4)nn3CC3CC3)ncn2)c1C [Example 156, ethyl 1-(6-{[3-(4-cyanophenyl)-1-(cyclopropylmethyl)-4-ethyl-1H-pyrazol-5-yl]amino}pyrimidin-4-yl)-3,5-dimethyl-1H-pyrazole-4-carboxylate] | 0.002
9 | CCOC(=O)c1cc(C)nn1-c1cc(Nc2nn(C)c(-c3ccc(F)cc3)c2Cl)ncn1 [Example 447, ethyl 1-(6-{[4-chloro-5-(4-fluorophenyl)-1-methyl-1H-pyrazol-3-yl]amino}pyrimidin-4-yl)-3-methyl-1H-pyrazole-5-carboxylate] | 0.56
10 | CCc1c(-c2ccc(C#N)cc2)nn(CC2CC2)c1Nc1cc(-n2nc(C)c3ccncc32)ncn1 [Example 203, 4-[1-(cyclopropylmethyl)-4-ethyl-5-{[6-(3-methyl-1H-pyrazolo[3,4-c]pyridin-1-yl)pyrimidin-4-yl]amino}-1H-pyrazol-3-yl]benzonitrile] | 1.4
11 | Cc1nn(-c2cc(Nc3c(C)nn(-c4ccc(F)cc4)c3C)ncn2)c(C)c1Cl [Example 63, 6-(4-chloro-3,5-dimethyl-1H-pyrazol-1-yl)-N-[1-(4-fluorophenyl)-3,5-dimethyl-1H-pyrazol-4-yl]pyrimidin-4-amine] | 0.00765
12 | CCc1c(Nc2cc(-n3nc(C)c(C(=O)N(C)C)c3C)ncn2)nn(C)c1-c1ccc(F)cc1 [Example 127, 1-(6-{[4-ethyl-5-(4-fluorophenyl)-1-methyl-1H-pyrazol-3-yl]amino}pyrimidin-4-yl)-N,N,3,5-tetramethyl-1H-pyrazole-4-carboxamide] | 1.2
13 | CC(=O)c1c(C)nn(-c2cc(Nc3c(C)c(-c4ccc(F)cc4)nn3CC3CC3)ncn2)c1C [Example 502, 1-[1-(6-{[1-(cyclopropylmethyl)-3-(4-fluorophenyl)-4-methyl-1H-pyrazol-5-yl]amino}pyrimidin-4-yl)-3,5-dimethyl-1H-pyrazol-4-yl]ethanone] | 0.005
14 | CCc1c(Nc2cc(-n3nc(C)cc3C)ncn2)nn(CCO)c1-c1ccc(F)cc1 [Example 111, 2-[3-{[6-(3,5-dimethyl-1H-pyrazol-1-yl)pyrimidin-4-yl]amino}-4-ethyl-5-(4-fluorophenyl)-1H-pyrazol-1-yl]ethanol] | 0.36
15 | Cc1nn(-c2cc(Nc3c(C)c(-c4ccc(F)cc4)nn3CC3CC3)ncn2)c(C)c1[N+](=O)[O-] [Example 466, N-[1-(cyclopropylmethyl)-3-(4-fluorophenyl)-4-methyl-1H-pyrazol-5-yl]-6-(3,5-dimethyl-4-nitro-1H-pyrazol-1-yl)pyrimidin-4-amine] | 0.011
16 | Cc1cc(C)n(-c2cc(Nc3nn(C)c(-c4ccc(F)cc4)c3C3CC3)ncn2)n1 [Example 41, N-[4-cyclopropyl-5-(4-fluorophenyl)-1-methyl-1H-pyrazol-3-yl]-6-(3,5-dimethyl-1H-pyrazol-1-yl)pyrimidin-4-amine] | 0.011
17 | Cc1nn(-c2cc(Nc3nn(C)c(-c4ccc(F)cc4)c3Cl)ncn2)c(C(C)(C)O)c1Cl [Example 304, 2-[4-chloro-1-(6-{[4-chloro-5-(4-fluorophenyl)-1-methyl-1H-pyrazol-3-yl]amino}pyrimidin-4-yl)-3-methyl-1H-pyrazol-5-yl]propan-2-ol] | 0.006
18 | COCCn1nc(-c2ccc(F)cc2)c(C)c1Nc1cc(-n2nc(C)c(OC)c2C)ncn1 [Example 526, N-[3-(4-fluorophenyl)-1-(2-methoxyethyl)-4-methyl-1H-pyrazol-5-yl]-6-(4-methoxy-3,5-dimethyl-1H-pyrazol-1-yl)pyrimidin-4-amine] | 0.017
19 | CCc1c(Nc2cc(-n3nc(C)c(C)c3O)ncn2)n[nH]c1-c1ccc(F)cc1 [Example 34, 1-(6-{[4-ethyl-5-(4-fluorophenyl)-1H-pyrazol-3-yl]amino}pyrimidin-4-yl)-3,4-dimethyl-1H-pyrazol-5-ol] | 1
20 | COc1c(-c2ccc(F)cc2)nn(CC2CC2)c1Nc1cc(-n2nc(C)c(-c3nnc(C)o3)c2C)ncn1 [Example 450, N-[1-(cyclopropylmethyl)-3-(4-fluorophenyl)-4-methoxy-1H-pyrazol-5-yl]-6-[3,5-dimethyl-4-(5-methyl-1,3,4-oxadiazol-2-yl)-1H-pyrazol-1-yl]pyrimidin-4-amine] | 0.66
21 | CCOC(=O)c1c(Cl)c(C)nn1-c1cc(Nc2nn(C)c(-c3ccc(F)cc3)c2Cl)ncn1 [Example 303, ethyl 4-chloro-1-(6-{[4-chloro-5-(4-fluorophenyl)-1-methyl-1H-pyrazol-3-yl]amino}pyrimidin-4-yl)-3-methyl-1H-pyrazole-5-carboxylate] | 0.047
